Activity calls are given as the source filed them. No cut-off for these calls is given here.
Key:
[1] = test system: HT-29; test: Inhibition of NF-kappaB signalling pathway in human HT-29 cells assessed as decrease in phosphorylated NF-kappaB p65 level at 2 to 8 uM incubated for 24 hrs by Western blot analysis; format: cell-based; settings: dose 2-8 µM
[2] = test system: RKO; test: Induction of apoptosis in human RKO cells assessed as increase in cleaved caspase-3 protein level at 3 to 9 uM incubated for 24 hrs by western blot analysis; format: functional, cell-based; settings: dose 3-9 µM
[3] = test system: RKO; test: Induction of apoptosis in human RKO cells assessed as increase in Bax protein level at 3 to 9 uM incubated for 24 hrs by western blot analysis; format: functional, cell-based; settings: dose 3-9 µM
[4] = Half life in Sprague-Dawley rat at 30 mg/kg, po and measured upto 12 hrs by LC-MS analysis; format: ADME, organism-based; settings: in vivo
[5] = test system: RKO; test: Induction of apoptosis in human RKO cells assessed as viable cells at 3 uM incubated for 24 hr by Annexin-V-FITC/PI staining based flow cytometry (Rvb= 87.9%); format: functional; settings: read-out: Activity
[6] = Half life in Sprague-Dawley rat at 100 mg/kg, po and measured upto 24 hrs by LC-MS analysis; format: ADME, organism-based; settings: in vivo
[7] = target: Prostaglandin G/H synthase 2 (Homo sapiens) (UniProt P35354); test: Inhibition of COX-2 (unknown origin) at 3 uM
[8] = Cmax in Sprague-Dawley rat at 30 mg/kg, po and measured upto 12 hrs by LC-MS analysis; format: ADME, organism-based; parameters: time < 12 hrs, dose 30 mg/kg, route po; settings: in vivo
[9] = test system: RKO; test: Antitumor activity against human RKO cells assessed as inhibition of cell proliferation incubated for 72 hrs by MTT assay; format: functional, cell-based
[10] = target: T1, DNA topoisomerase 1 (Homo sapiens) (UniProt P11387); test: Inhibition of topoisomerase 1 (unknown origin) assessed as relaxation of supercoiled plasmid pBR322 DNA at 1 uM incubated for 45 mins by ethidium bromide staining based agarose gel electrophoresis
T1 sequence (whole entry): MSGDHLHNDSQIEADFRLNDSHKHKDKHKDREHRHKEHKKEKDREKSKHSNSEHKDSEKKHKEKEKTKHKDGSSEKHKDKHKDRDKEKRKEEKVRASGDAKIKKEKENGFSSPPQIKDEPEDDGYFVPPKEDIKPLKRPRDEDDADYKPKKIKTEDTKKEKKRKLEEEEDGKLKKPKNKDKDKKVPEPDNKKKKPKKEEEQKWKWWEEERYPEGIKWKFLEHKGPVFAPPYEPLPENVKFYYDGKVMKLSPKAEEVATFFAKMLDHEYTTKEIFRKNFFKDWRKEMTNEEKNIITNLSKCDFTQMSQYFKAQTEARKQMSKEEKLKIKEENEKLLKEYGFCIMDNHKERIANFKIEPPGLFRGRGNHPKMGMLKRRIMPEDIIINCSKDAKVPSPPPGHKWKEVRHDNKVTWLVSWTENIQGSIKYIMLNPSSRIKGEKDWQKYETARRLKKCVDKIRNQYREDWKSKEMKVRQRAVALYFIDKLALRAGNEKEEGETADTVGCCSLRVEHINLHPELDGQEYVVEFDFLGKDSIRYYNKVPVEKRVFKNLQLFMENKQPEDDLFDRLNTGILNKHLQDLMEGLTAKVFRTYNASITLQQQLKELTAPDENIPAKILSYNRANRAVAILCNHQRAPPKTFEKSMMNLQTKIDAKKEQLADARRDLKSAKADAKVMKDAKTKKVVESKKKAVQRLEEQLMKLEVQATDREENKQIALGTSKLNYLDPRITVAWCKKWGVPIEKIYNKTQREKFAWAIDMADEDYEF

[11] = test system: LoVo; test: Antitumor activity against human LoVo cells assessed as inhibition of cell proliferation incubated for 72 hrs by MTT assay; format: functional, cell-based
[12] = target: Prostaglandin G/H synthase 2 (Homo sapiens) (UniProt P35354); test: Inhibition of COX-2 (unknown origin) at 30 uM
[13] = target: T1, DNA topoisomerase 1 (Homo sapiens); test: Inhibition of topoisomerase 1 (unknown origin) assessed as relaxation of supercoiled plasmid pBR322 DNA at 10 uM incubated for 45 mins by ethidium bromide staining based agarose gel electrophoresis
[14] = test system: HT-29; test: Induction of apoptosis in human HT-29 cells assessed as early apoptotic cells at 8 uM incubated for 24 hr by Annexin-V-FITC/PI staining based flow cytometry (Rvb=6.25%); format: functional
[15] = test system: HT-29; test: Induction of apoptosis in human HT-29 cells assessed as decrease in Bcl-2 protein level at 2 to 8 uM incubated for 24 hrs by western blot analysis; format: functional, cell-based; settings: dose 2-8 µM
[16] = test system: HT-29; test: Induction of apoptosis in human HT-29 cells assessed as reduction in mitochondrial membrane potential at 2 to 8 uM by TMRE staining based flow cytometry; format: functional, cell-based; settings: dose 2-8 µM
[17] = target: T1, DNA topoisomerase 1 (Homo sapiens); test: Poison activity at topoisomerase 1 (unknown origin) assessed as s increase in nicked DNA formation at 1 mM using supercoiled plasmid DNA as substrate at 200 to 400 uM incubated for 35 mins by agarose gel electrophoresis
[18] = test system: HT-29; test: Induction of apoptosis in human HT-29 cells assessed as viable cells at 2 uM incubated for 24 hr by Annexin-V-FITC/PI staining based flow cytometry (Rvb= 83.5%); format: functional; settings: read-out: Activity
[19] = test system: HT-29; test: Antitumor activity against human HT-29 cells xenografted in BALB/c mouse assessed as inhibition of tumor microvessel density by measuring CD31-index at 15 mg/kg, ip bid for 14 days by immunohistochemical analysis; format: functional; settings: time 14 day
[20] = test system: HT-29; test: Antitumor activity against human HT-29 cells xenografted in BALB/c mouse assessed as inhibition of tumor cell proliferation at 15 mg/kg, ip bid for 14 days by Ki67 staining based immunohistochemical analysis (Rvb= 16.61+/-1.05%); format: functional; parameters: scale not given: the % may be the effect or the level left; settings: time 14 day
[21] = test system: SW480; test: Antitumor activity against human SW480 cells assessed as inhibition of cell proliferation incubated for 72 hrs by MTT assay; format: functional, cell-based; settings: SW480, 72 h
[22] = test system: RKO; test: Induction of apoptosis in human RKO cells assessed as viable cells at 9 uM incubated for 24 hr by Annexin-V-FITC/PI staining based flow cytometry (Rvb= 87.9%); format: functional; settings: read-out: Activity
[23] = test system: HT-29; test: Inhibition of NF-kappaB signalling pathway in human HT-29 cells assessed as decrease in phosphorylated IkappaB level at 2 to 8 uM incubated for 24 hrs by Western blot analysis; format: cell-based; settings: dose 2-8 µM
[24] = test system: HT-29; test: Induction of apoptosis in human HT-29 cells assessed as viable cells at 4 uM incubated for 24 hr by Annexin-V-FITC/PI staining based flow cytometry (Rvb= 83.5%); format: functional; settings: read-out: Activity
[25] = test system: RKO; test: Induction of apoptosis in human RKO cells assessed as late apoptotic cells at 3 uM incubated for 24 hr by Annexin-V-FITC/PI staining based flow cytometry (Rvb= 4.49%); format: functional
[26] = test system: RKO; test: Induction of apoptosis in human RKO cells assessed as decrease in Bcl-2 protein level at 3 to 9 uM incubated for 24 hrs by western blot analysis; format: functional, cell-based; settings: dose 3-9 µM
[27] = test system: RKO; test: Induction of apoptosis in human RKO cells assessed as necrotic cells at 9 uM incubated for 24 hr by Annexin-V-FITC/PI staining based flow cytometry (Rvb= 0.30%); format: functional

Prostaglandin G/H synthase 2 (Homo sapiens), sequence (P35354 whole entry, looked up): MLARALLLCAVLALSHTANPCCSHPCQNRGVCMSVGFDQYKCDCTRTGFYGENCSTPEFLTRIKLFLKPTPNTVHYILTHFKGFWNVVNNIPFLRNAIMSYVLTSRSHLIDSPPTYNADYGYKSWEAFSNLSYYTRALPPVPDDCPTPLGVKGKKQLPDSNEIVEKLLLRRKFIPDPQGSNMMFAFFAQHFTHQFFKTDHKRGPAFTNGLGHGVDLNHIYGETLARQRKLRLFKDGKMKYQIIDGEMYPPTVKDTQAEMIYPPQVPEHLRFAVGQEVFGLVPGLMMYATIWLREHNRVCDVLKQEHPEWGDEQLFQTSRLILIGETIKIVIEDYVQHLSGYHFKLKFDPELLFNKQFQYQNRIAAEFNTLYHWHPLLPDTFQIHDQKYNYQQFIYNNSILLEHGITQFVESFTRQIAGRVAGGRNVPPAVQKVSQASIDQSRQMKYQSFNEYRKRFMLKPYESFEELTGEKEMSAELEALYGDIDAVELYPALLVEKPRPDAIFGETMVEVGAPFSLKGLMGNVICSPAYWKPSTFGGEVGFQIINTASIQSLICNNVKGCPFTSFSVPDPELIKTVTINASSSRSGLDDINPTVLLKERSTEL

Cc1c(Cl)cccc1Nc1ccccc1C(=O)Nc1ccc(N2CCNCC2)cc1
inhibition [1]: Active
Activity [2]: Active
Activity [3]: Active
half-life [4]: 4.27 h
viability at 3 µM [5]: 88%
half-life [6]: 8.87 h
inhibition [7]: 74.2%
Cmax [8]: 1600 ng/mL
IC50 [9]: 2.06 µM
inhibition [10]: 53.2%
IC50 [11]: 4.89 µM
inhibition [12]: 100%
inhibition [13]: 69%
Activity [14]: 3.96%
Activity [15]: Active
Activity [16]: Active
Activity [17]: Active
viability at 2 µM [18]: 82.6%
Inhibition_index [19]: 10.67
Activity [20]: 3.74%
IC50 [21]: 7.36 µM
viability at 9 µM [22]: 65.6%
inhibition [23]: Active
viability at 4 µM [24]: 80%
Activity [25]: 4.66%
Activity [26]: Active
Activity [27]: 0.59%

— ChEMBL document CHEMBL5113460, “Discovery of dual inhibitors of topoisomerase I and Cyclooxygenase-2 for colon cancer therapy” (Eur J Med Chem, 2022)
